Laboratory results from patent US20090048190A1, “Antiviral activity and resolution of 2-hydroxymethyl-5(5-fluorocytosin-1-yl)-1,3-oxathiolane” (priority 1990, published 2009).
Where two headings read alike, the source gives them in different places.

Columns and labels:
[1] = tested on: AZT-resistant HIV isolates; details: in vitro, isolates from patients treated with AZT for longer than 36 weeks; cited from earlier work
[2] = tested on: HIV; details: compared with AZT; cited from earlier work
[3] = tested on: FIV; test: Antiretroviral activity in different cell systems, FIV; format: cell-based; details: CrFK (61E)
[4] = tested on: other cell lines
[5] = tested on: Vero cells
[6] = tested on: human PBM cells; details: 10 μM radiolabeled FTC
Procedure: All studies were conducted in duplicate. […] Cells were exposed to the drug for 2, 6, 12, and 24 hours. At these timepoints, the medium was removed and the cells were washed two times with cold Hank's balanced salt solution. Extraction was performed with addition of 0.2 ml of 60% cold methanol/water and stored overnight at −70° C. The following morning, the suspensions were centrifuged and extractions were repeated two times for 0.5 hours at −70° C. The total supernatants (0.6 ml) were lyophilized to dryness. The residues were resuspended in 250 μl of water and aliquots of between 50 and 100 μl were analyzed by HPLC. Quantitation of intracellular parent drug and metabolic derivatives were conducted by HPLC.

[7] = Pharmacokinetics after intravenous administration to rats
[8] = tested on: HIV-1 (strain LAV); format: cell-based
Text: It is often desirable to screen a number of racemic mixtures of nucleosides as a preliminary step to determine which warrant further resolution into enantiomerically enriched components and further evaluation of antiviral activity. The ability of nucleosides to inhibit HIV can be measured by various experimental techniques. The technique used herein, and described in detail below, measures the inhibition of viral replication in phytohemagglutinin (PHA) stimulated human peripheral blood mononuclear (PBM) cells infected with HIV-1 (strain LAV). The amount of virus produced is determined by measuring the virus-coded reverse transcriptase enzyme. The amount of enzyme produced is proportional to the amount of virus produced.
A. Three-day-old phytohemagglutinin-stimulated PBM cells (10^6 cells/ml) from hepatitis B and HIV-1 seronegative healthy donors were infected with HIV-1 (strain LAV) at a concentration of about 100 times the 50% tissue culture infectious dose (TICD 50) per ml and cultured in the presence and absence of various concentrations of antiviral compounds.
B. Approximately one hour after infection, the medium, with the compound to be tested (2 times the final concentration in medium) or without compound, was added to the flasks (5 ml; final volume 10 ml). AZT was used as a positive control.
C. The cells were exposed to the virus (about 2×10^5 dpm/ml, as determined by reverse transcriptase assay) and then placed in a CO2 incubator. HIV-1 (strain LAV) was obtained from the Center for Disease Control, Atlanta, Ga. The methods used for culturing the PBM cells, harvesting the virus and determining the reverse transcriptase activity were those described by McDougal et al. (J. Immun. Meth. 76, 171-183, 1985) and Spira et al. (J. Clin. Meth. 25, 97-99, 1987), except that fungizone was not included in the medium (see Schinazi, et al., Antimicrob. Agents Chemother. 32, 1784-1787 (1988); Id., 34:1061-1067 (1990)).
D. On day 6, the cells and supernatant were transferred to a 15 ml tube and centrifuged at about 900 g for 10 minutes. Five ml of supernatant were removed and the virus was concentrated by centrifugation at 40,000 rpm for 30 minutes (Beckman 70.1 Ti rotor). The solubilized virus pellet was processed for determination of the levels of reverse transcriptase. Results are expressed in dpm/ml of sampled supernatant. Virus from smaller volumes of supernatant (1 ml) can also be concentrated by centrifugation prior to solubilization and determination of reverse transcriptase levels.

[9] = tested on: uninfected human PBM cells
Text: The cells were counted after 6 days using a hemacytometer and the trypan blue exclusion method, as described by Schinazi et al., Antimicrobial Agents and Chemotherapy, 22(3), 499 (1982).

[10] = tested on: HepG2 cells; details: 10 μM [3H]-(±)-FTC
[11] = tested on: HIV; test: microbe, parasite or virus in culture; format: cell-based; details: MT4 system
[12] = CSF/serum ratio in rhesus monkeys; format: in vivo; details: 33.3 mg/kg, one hour after administration
[13] = tested on: CEM cells
[14] = tested on: HIV-2; test: Antiretroviral activity in different cell systems, HIV-2; format: cell-based; details: PBMC (ROD2)
Procedure: Cell lines were obtained from either human donors, AIDS Research and Reference Reagent Program, NIH, Rockville, Md., ATCC, or the Red Cross. The CEM thymidine kinase deficient cells were prepared by sequential passage of CEM cells in the presence of 5-bromo-2′-deoxyuridine.

[15] = tested on: human PBM cells; test: Egress of radiolabeled FTC from human PBM cells; format: in vitro ADME; details: human PBM cells after 24 h pulse with 10 μM
Procedure: This study measures the time needed for intracellular levels of triphosphates to decline. Studies were conducted in duplicate. Uninfected cells (2×10^6 ml) were suspended in the appropriate medium supplemented with serum (10 ml per timepoint) and incubated at 37° C. in a 5% CO2 incubator. The radiolabeled FTC concentration was 10 μM. After pulsing the cells with the labeled compound for 24 hours, the cells were thoroughly washed and then replenished with fresh medium without the antiviral drugs (0 hr). At 0, 2, 4, 6, 12, 24, and 48 hours (second incubation time), the cells were removed, and immediately extracted with 60% cold methanol/water. The extract was obtained by centrifugation and removal of the cell pellet. The extracts were lyophilized and then stored at −70° C. Prior to analysis, the material was resuspended in 250 microliters of HPLC buffer and immediately analyzed. Quantitation of intracellular parent drug and metabolic derivatives was conducted by HPLC, using either a Micromeritics or Hewlett-Packard model 1090 PHLC system with an anion exchange Partisil 10 SAX column (Whatman, Inc.), at a flow rate of 1 ml/min, 1 kpsi pressure, with UV detection at 262 nm. The mobile phase consisted of deionized water (A), 2 mM NaH2PO4/16 mM NaOAc (pH=6.6) (B), 15 mM NaH2PO4/120.2 mM NaOAc (pH=6.6) (C), and 100 mM NaH2PO4/800 mM NaOAc (pH=6.6) (D). […]

[16] = molecular target: T1, HIV-1 reverse transcriptase (RT) (Human immunodeficiency virus type 1 group M subtype B, UniProt P04585); test: Inhibition of HIV-1 reverse transcriptase by FTC triphosphate; format: biochemical; details: sequencing analysis, HIV-RT (C-stops)
T1 construct: HIV-1 reverse transcriptase (RT)
Procedure: Toxicity and pharmacokinetic studies confirm the usefulness of FTC as an antiviral agent for pharmaceutical administration. FTC and its enantiomers are nontoxic to peripheral human bone marrow cells at concentrations up to 50 µM and other cell lines at concentrations up to 200 μM. FTC-TP is a major intracellular metabolite in PBMC and HepG2 cells.

Q: What does the source list for `Nc1ccn(C2CSC(CO)O2)c(=O)n1` (racemic) [(±)-BCH-189, 2-hydroxymethyl-5-(cytosin-1-yl)-1,3-oxathiolane]?
A: inhibition of replication of AZT-resistant HIV isolates [1]: inhibit the replication of AZT-resistant HIV isolates; activity against HIV [2]: approximately the same activity against HIV as AZT

Q: With `Nc1nc(=O)n([C@@H]2CS[C@H](CO)O2)cc1F` (racemic) [(±)-FTC, (±)-β-D,L-2-hydroxymethyl-5-(5-fluorocytosin-1-yl)-1,3-oxathiolane] as the molecule, how does the EC50 [3] read?
A: Its EC50 is no more than 1000 nM.

Q: And the “nontoxic at concentrations up to” value [4]?
A: The value was “up to 200 μM”.

Q: What about the toxicity [5] of the same molecule?
A: Its toxicity is greater than 100 µM.

Q: And the “uptake in human lymphocytes” value [6]?
A: Its value is “readily taken up”.

Q: What about the CLT ([7]; 10 mg/kg) of the same molecule?
A: The CLT was 16.5 mL/min/kg.

Q: And the CLT ([7]; 50 mg/kg)?
A: Its CLT is 14.6 mL/min/kg.

Q: And the MRT ([7]; 50 mg/kg)?
A: The MRT was 48 min.

Q: What about the CLT ([7]; 100 mg/kg) of the same molecule?
A: Its CLT is 13.8 mL/min/kg.

Q: And the “% Inhibition (Corrected)” value ([8]; 0.0001 μM)?
A: The value was 26.6%.

Q: What about the DPM/ml ([8]; 0.0001 μM) of the same molecule?
A: The DPM/ml was 73,755 DPM/ml.

Q: And the “% Inhibition (Corrected)” value ([8]; 0.005 μM)?
A: The value was 16.3%.

Q: And the DPM/ml ([8]; 0.005 μM)?
A: Its DPM/ml is 83,005 DPM/ml.

Q: And the “% Inhibition (Corrected)” value ([8]; 0.01 μM)?
A: Its value is 41.3%.

Q: And the DPM/ml ([8]; 0.01 μM)?
A: Its DPM/ml is 60,465 DPM/ml.

Q: What about the “% Inhibition (Corrected)” value ([8]; 0.05 μM) of the same molecule?
A: The value was 70.4%.

Q: And the DPM/ml ([8]; 0.05 μM)?
A: The DPM/ml was 34,120 DPM/ml.

Q: And the “% Inhibition (Corrected)” value ([8]; 0.1 μM)?
A: Its value is 92.4%.

Q: What about the DPM/ml ([8]; 0.1 μM) of the same molecule?
A: Its DPM/ml is 14,160 DPM/ml.

Q: And the “% Inhibition (Corrected)” value ([8]; 0.5 μM)?
A: The value was 88.1%.

Q: What about the DPM/ml ([8]; 0.5 μM) of the same molecule?
A: The DPM/ml was 18,095 DPM/ml.

Q: What about the “% Inhibition (Corrected)” value ([8]; 1 μM) of the same molecule?
A: Its value is 99.7%.

Q: And the DPM/ml ([8]; 1 μM)?
A: The DPM/ml was 7,555 DPM/ml.

Q: What about the “% Inhibition (Corrected)” value ([8]; 5 μM) of the same molecule?
A: The value was 99.3%.

Q: And the DPM/ml ([8]; 5 μM)?
A: The DPM/ml was 7,940 DPM/ml.

Q: And the “% Inhibition (Corrected)” value ([8]; 10 μM)?
A: The value was 101.7%.

Q: What about the DPM/ml ([8]; 10 μM) of the same molecule?
A: Its DPM/ml is 5,810 DPM/ml.

Q: And the EC50 ([8]; PBM cells, read-out: activity in PBM cells)?
A: The EC50 was roughly 10 nM.

Q: And the EC50 ([8]; enantiomers resolved by HPLC (Example 4), Table 4, read-out: EC50)?
A: The EC50 was 18 nM.

Q: What about the EC50 ([8]; enantiomers resolved by method of Example 3, FIG. 6, read-out: EC50) of the same molecule?
A: Its EC50 is 17 nM.

Q: What about the EC50 ([8]; human PBM cells, HIV-1 strain LAV, Table 3, read-out: Antiviral EC50) of the same molecule?
A: Its EC50 is 10 nM.

Q: And the VSS (I.V., 33.3 mg/kg, individual monkeys (RUh, RMi, RJd))?
A: Its VSS is 2.00 L/kg.

Q: And the “F (bioavailability)” value (P.O., 33.3 mg/kg, individual monkeys (RUh, RMi, RJd))?
A: The value was 80%.

Q: And the “plasma terminal half life” value (rhesus monkeys, mean of oral and I.V. administration)?
A: Its value is “approximately 1.34±0.18”.

Q: What about the IC50 [9] of the same molecule?
A: Its IC50 is greater than 100000 nM.

Q: What about the “uptake by HepG2 cells” value [10] of the same molecule?
A: The value was “taken up by HepG2 cells in large amounts”.

Q: What about the IC50 [11] of the same molecule?
A: The IC50 was 520 nM.

Q: And the “ability to cross the blood-brain barrier” value [12]?
A: Its value is “significant amount of active compound passes through the blood-brain barrier”.

Q: What about the toxicity [13] of the same molecule?
A: Its toxicity is greater than 100 µM.

Q: And the EC50 [14]?
A: The EC50 was 3.8 nM.

Q: Which results are given for `Nc1nc(=O)n([C@@H]2CS[C@H](COP(=O)(O)OP(=O)(O)OP(=O)(O)O)O2)cc1F` (racemic) [FTC-TP]?
A: intracellular half-life [15]: approximately 12 hours; DNA chain termination [16]: potent DNA chain terminator
